Data: US11453660B2, “Androgen receptor and glucocorticoid receptor modulators” (ONCOSTELLAE, S.L., priority 2017, dated 2022)

These molecules were tested against T1, Rat Androgen Receptor (Rattus norvegicus, UniProt P15207) (assay: Rat Androgen Receptor Binding (polarscreen AR competitor assay, fluorescence polarization)). Details: displacement of Fluormone AL Green, 4 hours at RT, read-out: AR rat-fluorimetric.
T1 construct: purchased Life Technologies A15880
T1 sequence (P15207 646-902 limits assumed): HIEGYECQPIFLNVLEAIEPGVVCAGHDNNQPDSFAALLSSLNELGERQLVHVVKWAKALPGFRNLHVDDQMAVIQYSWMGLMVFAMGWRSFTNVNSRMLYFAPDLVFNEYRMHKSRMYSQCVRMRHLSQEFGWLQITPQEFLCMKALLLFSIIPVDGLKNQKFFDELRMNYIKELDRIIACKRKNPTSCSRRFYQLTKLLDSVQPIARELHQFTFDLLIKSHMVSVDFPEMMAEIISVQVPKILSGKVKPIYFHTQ
Protocol: Pharmacological Activity Rat Androgen Receptor Binding
The assay was carried out following the instructions of polarscreen AR competitor assay green kit (Life Technologies, Cat #.: A15880). Briefly, the test is based on measuring the changes of fluorescence polarization shown by the Fluormone AL Green. Thus, when the Fluormone is bound to the receptor, a fluorescence polarization is observed that diminishes when a ligand competes for the receptor binding site and the Fluormone gets displaced.
The inhibition values for each of the compounds are measured in duplicate at 1 and 10 μM and the plate is incubated for 4 hours at RT. Fluorescence polarization is the measured in a Tecan Infinite M1000 Pro reader (λexc=485 nm, λem=535 nm). In order to obtain a dose-response curve and calculate the potency of inhibition (expressed as IC50) for AR, a series of 1:10 dilutions in test in 1× buffer from 10 μM to 0.1 nM for each compound was carried out.

| SMILES | IC50 [µM] |
| --- | --- |
| COCCC1=C(C(=O)OC)C(c2csc3ccccc23)C(C(C)=O)=C(C)N1 (stereo not drawn) [Example C7, Methyl 5-acetyl-4-(benzo[b]thiophen-3-yl)-2-(2-methoxyethyl)-6-methyl-1,4-dihydropyridine-3-carboxylate] | 0.1 to 1 |
| COCC1=C(C(C)=O)C(c2csc3ccccc23)C(C(=O)OC)=C(C)N1 (stereo not drawn) [Example C19, Methyl 5-acetyl-4-(benzo[b]thiophen-3-yl)-6-(methoxymethyl)-2-methyl-1,4-dihydropyridine-3-carboxylate] | ≥ 1 |
| CC(=O)C1=C(C)NC(C)=C(C(=O)OCC2CC2)C1c1csc2ccc(F)cc12 (stereo not drawn) [Example C21, Cyclopropylmethyl 5-acetyl-4-(5-fluorobenzo[b]thiophen-3-yl)-2,6-dimethyl-1,4-dihydropyridine-3-carboxylate] | < 0.1 |
| CC(=O)C1=C(C)NC(C)=C(C(=O)OCC2CCCC2)C1c1csc2ccccc12 (stereo not drawn) [Example C23, Cyclopentylmethyl 5-acetyl-4-(benzo[b]thiophen-3-yl)-2,6-dimethyl-1,4-dihydropyridine-3-carboxylate] | < 0.1 |
| CC(=O)C1=C(C)NC(C)=C(C(=O)OC2CCCC2)C1c1csc2ccccc12 (stereo not drawn) [Example C26, Cyclopentyl 5-acetyl-4-(benzo[b]thiophen-3-yl)-2,6-dimethyl-1,4-dihydropyridine-3-carboxylate] | < 0.1 |
| CC(=O)C1=C(C)NC(C)=C(C(=O)OC2CCC(C)(C)CC2)C1c1csc2ccccc12 (stereo not drawn) [Example C27, 4,4-dimethylcyclohexyl 5-acetyl-4-(benzo[b]thiophen-3-yl)-2,6-dimethyl-1,4-dihydropyridine-3-carboxylate] | ≥ 1 |
| CC(=O)C1=C(C)NC(C)=C(C(=O)OC2CCC2)C1c1csc2ccccc12 (stereo not drawn) [Example C28, Cyclobutyl 5-acetyl-4-(benzo[b]thiophen-3-yl)-2,6-dimethyl-1,4-dihydropyridine-3-carboxylate] | 0.1 to 1 |
| COC(=O)C1=C(C(F)(F)F)NC(C)=C(C(C)=O)C1c1csc2ccc(F)cc12 (stereo not drawn) [Example C29, Methyl 5-acetyl-4-(5-fluorobenzo[b]thiophen-3-yl)-6-methyl-2-(trifluoromethyl)-1,4-dihydropyridine-3-carboxylate] | < 0.1 |
| COC(=O)C1=C(N)NC(C)=C(C(=O)C2CC2)C1c1csc2ccccc12 (stereo not drawn) [Example D2, Methyl 2-amino-4-(benzo[b]thiophen-3-yl)-5-(cyclopropanecarbonyl)-6-methyl-1,4-dihydropyridine-3-carboxylate] | ≥ 1 |
| COC(=O)C1=C(N)NC(C)=C(C(C)=O)C1c1csc2ccc(F)cc12 (stereo not drawn) [Example D3, Methyl 5-acetyl-2-amino-4-(5-fluorobenzo[b]thiophen-3-yl)-6-methyl-1,4-dihydropyridine-3-carboxylate] | < 0.1 |

Next, values leading:

| IC50 [µM] | SMILES |
| --- | --- |
| ≥ 1 | CC(=O)C1=C(C)NC(C)=C(C(C)=O)C1c1csc2cc(O)ccc12 [Example G2, 1,1′-(4-(6-hydroxybenzo[b]thiophen-3-yl)-2,6-dimethyl-1,4-dihydropyridine-3,5-diyl)bis(ethan-1-one)] |
| ≥ 1 | COc1ccc2c(C3C(C(C)=O)=C(C)NC(C)=C3C(C)=O)csc2c1 [Example G3, 1,1′-(4-(6-Methoxybenzo[b]thiophen-3-yl)-2,6-dimethyl-1,4-dihydropyridine-3,5-diyl)diethanone] |
| ≥ 1 | CC(=O)C1=C(C2CC2)NC(C2CC2)=C(C(C)=O)C1c1csc2ccccc12 [Example G4, 1,1′-(4-(Benzo[b]thiophen-3-yl)-2,6-dicyclopropyl-1,4-dihydropyridine-3,5-diyl)diethanone] |
| < 0.1 | CC(=O)C1=C(C)NC(C)=C(C(C)=O)C1c1csc2ccc(Cl)cc12 [Example H1, 1,1′-(4-(5-chlorobenzo[b]thiophen-3-yl)-2,6-dimethyl-1,4-dihydropyridine-3,5-diyl)diethanone] |
| < 0.1 | CC(=O)C1=C(C)NC(C)=C(C(C)=O)C1c1csc2ccc(Br)cc12 [Example H2, 1,1′-(4-(5-bromobenzo[b]thiophen-3-yl)-2,6-dimethyl-1,4-dihydropyridine-3,5-diyl)diethanone] |
| ≥ 1 | CC(=O)C1=C(C)NC(C)=C(C(C)=O)C1c1csc2ccc(F)cc12 [Example H3, 1,1′-(4-(5-fluorobenzo[b]thiophen-3-yl)-2,6-dimethyl-1,4-dihydropyridine-3,5-diyl)bis(ethan-1-one)] |
| ≥ 1 | CC(=O)C1=C(C)NC(C)=C(C(C)=O)C1c1csc2ccc(N3CCOCC3)cc12 [Example H4, 1,1′-(2,6-dimethyl-4-(5-morpholinobenzo[b]thiophen-3-yl)-1,4-dihydropyridine-3,5-diyl)bis(ethan-1-one)] |
| ≥ 1 | CC(=O)C1=C(C)NC(C)=C(C(C)=O)C1c1csc2ccc(N3CCN(C)CC3)cc12 [Example H5, 1,1′-(2,6-dimethyl-4-(5-(4-methylpiperazin-1-yl)benzo[b]thiophen-3-yl)-1,4-dihydropyridine-3,5-diyl)bis(ethan-1-one)] |
| ≥ 1 | CC(=O)C1=C(C)NC(C)=C(C(C)=O)C1c1csc2ccc(NCc3ccccc3)cc12 [Example H6, 1,1′-(4-(5-(benzylamino)benzo[b]thiophen-3-yl)-2,6-dimethyl-1,4-dihydropyridine-3,5-diyl)bis(ethan-1-one)] |
| ≥ 1 | CC(=O)C1=C(C)NC(C)=C(C(C)=O)C1c1csc2ccc(C#N)cc12 [Example H7, 3-(3,5-diacetyl-2,6-dimethyl-1,4-dihydropyridin-4-yl)benzo[b]thiophene-5-carbonitrile] |
| ≥ 1 | CC(=O)C1=C(C)NC(C)=C(C(C)=O)C1c1csc2ccc(C(=O)O)cc12 [Example H8, 3-(3,5-diacetyl-2,6-dimethyl-1,4-dihydropyridin-4-yl)benzo[b]thiophene-5-carboxylic acid] |
| ≥ 1 | CC(=O)C1=C(C)NC(C)=C(C(C)=O)C1c1csc2ccc(C(=O)NC3CC3)cc12 [Example H9, N-cyclopropyl-3-(3,5-diacetyl-2,6-dimethyl-1,4-dihydropyridin-4-yl)benzo[b]thiophene-5-carboxamide] |
| ≥ 1 | CC(=O)C1=C(C)NC(C)=C(C(C)=O)C1c1csc2ccc(C(=O)NCC3CC3)cc12 [Example H10, N-(cyclopropylmethyl)-3-(3,5-diacetyl-2,6-dimethyl-1,4-dihydropyridin-4-yl)benzo[b]thiophene-5-carboxamide] |
| ≥ 1 | CC(=O)C1=C(C)NC(C)=C(C(C)=O)C1c1csc2ccc(C(=O)N3CCN(C)CC3)cc12 [Example H11, 1,1′-(2,6-Dimethyl-4-(5-(4-methylpiperazine-1-carbonyl)benzo[b]thiophen-3-yl)-1,4-dihydropyridine-3,5-diyl)bis(ethan-1-one)] |
| ≥ 1 | CC(=O)C1=C(C)NC(C)=C(C(C)=O)C1c1csc2ccc(C(=O)N3CCOCC3)cc12 [Example H12, 1,1′-(2,6-Dimethyl-4-(5-(morpholine-4-carbonyl)benzo[b]thiophen-3-yl)-1,4-dihydropyridine-3,5-diyl)bis(ethan-1-one)] |
| ≥ 1 | CC(=O)C1=C(C)NC(C)=C(C(C)=O)C1c1csc2ccncc12 [Example H13, 1,1′-(2,6-Dimethyl-4-(thieno[3,2-c]pyridin-3-yl)-1,4-dihydropyridine-3,5-diyl)bis(ethan-1-one)] |
| ≥ 1 | CC(=O)C1=C(C)NC(C)=C(C(C)=O)C1c1csc2cnccc12 [Example H14, 1,1′-(2,6-Dimethyl-4-(thieno[2,3-c]pyridin-3-yl)-1,4-dihydropyridine-3,5-diyl)bis(ethan-1-one)] |
